Measured values published in patent US20260234188A1, “CHEMOKINE-BINDING PEPTIDES” (Oxford University Innovation Limited, priority 2022, published 2026).
Ends that are not written are not given here. Peptide text beside a SMILES is read from it.

Tests used:
CC and CXC chemokines = assay: Chemokine-induced cell migration assays, pooled over chemokines (meta-analysis); type: cell-based, human; conditions: single HD2 mutations; nine CC and six CXC chemokines
Procedure: FIG. 16. Effect of HD2 alanine mutations on chemotaxis. […] All experiments were performed as three technical and three biological replicates, and individual data points are indicated, and coloured by the chemokine used. Statistically significant differences (compared to control, coloured blue), using Dunnett's test with correction for multiple comparisons, are indicated by asterisks: ****=P≤0.0001, ***=P≤0.001, **=P≤0.01, *=P≤[…] observations per group (three technical and three biological replicates for each chemokine). FIG. 16B, Faceted plots of change in median normalised cell count between alanine mutant and wild-type HD2 peptide obtained in cell migration assays (Y-axis, Δmedian normalised cell count) versus alanine mutated residue (X-axis). Chemokines used for each experiment are indicated in the strip to the right of each plot. Statistically significant differences compared to parental HD2 are shown as red dots. […] Scatterplot of Δmedian normalised cell count (Y-axis, obtained in cell migration assays) versus Δlog 2 E (obtained in phage-display experiments) for peptide:chemokine pairs. Individual data points indicate peptide chemokine pairs for which both cell migration and Δlog 2 E were available. Linear regression plot with 95% confidence interval, Spearman correlation coefficient (R) and statistical significance (p) are shown.
FIG. 19. […] All experiments were performed as at least three technical and three biological replicates, and individual data points are indicated, and coloured by the chemokine used, for all chemokines studied (n=16 chemokines). Statistically significant differences (compared to control, coloured blue), using Dunnett's test with correction for multiple comparisons, are indicated by asterisks: ****=P≤0.0001, ***=P≤0.001, **=P≤0.01, *=P≤0.05.
(§1) Briefly, cell migration assays use THP1 cells (human monocyte) and primary human buffy coat white cells (consisting of neutrophil granulocytes, monocytes, and lymphocytes), and activated T-cells. THP1 cells and primary monocytes respond to CCL2, CCL3, CCL5, CCL8 and CXCL4, granulocytes to CXCL1 and CXCL8, activated T-cells to CXCL9/10/11. Assays are performed in 96-well Boyden chambers, and migrated cells counted and characterized using and ATTUNE Flow Cytometer as described. Triplicate assays are performed at the EC80 dose of each chemokine at 10 μM peptide concentration.
The J:CXCR1 cell line was generated by transfecting Jurkat cells by electroporation with PvuI-linearized plasmid D1398 and selecting with blasticidin (Sigma-Aldrich, Cat #203350, […]). […] J:CXCR1 cells were cultured in RPMI-1640 media (Gibco), supplemented with 10% FBS and 5 mM L-Glutamine with blasticidin. For J:CXCR1 migration assays, 300,000 cells/well were added to the top chamber of a 3 μm Transwell insert (Corning) in 50 μL of migration media (RPMI-1640, 0.5% FBS, 4 mM L-Glutamine, 0.05% DMSO). The bottom chamber contained 150 μL of chemokine, with or without peptide. Cells were migrated at 37° C. in 5% CO2 for 4 hours. The plate was incubated on a shaking platform for 10 minutes, 800 rpm, at 37° C., and 150 μL from the bottom of the plate transferred into a U-bottom plate containing 50 μL of migration media.

CXCL9 = molecular target: T1, CXCL9 (Homo sapiens, UniProt Q07325); assay: CXCL9-induced activated T-cell migration, transwell assay; type: cell-based; conditions: HD2 mutant peptides 10 μM, chemokine at EC80
T1 construct: purchased Peprotech
T1 sequence (Q07325 23-125): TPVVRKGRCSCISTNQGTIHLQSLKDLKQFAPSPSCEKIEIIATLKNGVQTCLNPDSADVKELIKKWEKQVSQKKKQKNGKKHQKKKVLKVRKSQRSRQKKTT
Procedure: FIG. 2. […] BK1.2 is described in (Darlot, 2020). […] Chemokines used are indicated by the name, followed in parenthesis by the supplier code (P in supplier code indicates Peprotech). […] All experiments were performed at EC80 doses of indicated chemokine. Data are shown as box-whisker plots of three technical and three biological replicates. Statistically significant differences (compared to control, indicated by #), using Dunnett's test with correction for multiple comparisons, are indicated by asterisks: ****=P≤0.0001, ***=P≤0.001, **=P≤0.01, *=P≤0.05.
as §1
The J:CXCR1 cell line was generated by transfecting Jurkat cells by electroporation with PvuI-linearized plasmid D1398 and selecting with blasticidin (Sigma-Aldrich, Cat #203350, […]). […] J:CXCR1 cells were cultured in RPMI-1640 media (Gibco), supplemented with 10% FBS and 5 mM L-Glutamine with blasticidin. For J:CXCR1 migration assays, 300,000 cells/well were added to the top chamber of a 3 μm Transwell insert (Corning) in 50 μL of migration media (RPMI-1640, 0.5% FBS, 4 mM L-Glutamine, 0.05% DMSO). The bottom chamber contained 150 μL of chemokine, with or without peptide. Cells were migrated at 37° C. in 5% CO2 for 4 hours. The plate was incubated on a shaking platform for 10 minutes, 800 rpm, at 37° C., and 150 μL from the bottom of the plate transferred into a U-bottom plate containing 50 μL of migration media. Cell counts were determined by Attune NxT Flow Cytometer Plate Reader (ThermoFisher), based on cell size parameters FSC-H/SSC-H. Experiments were performed in 3 technical and 3 biological replicates. THP-1 migration assays were carried out using methods known in the art. Activated T-cell assays were carried out using methods known in the art, with the following modifications in the isolation process. Peripheral blood cells were obtained from leucocyte cones (NHS Blood Transfusion Services), following which, T-cells were isolated using two rounds of human CD8+ T-cell isolation kit (480011, BioLegend). At day 10 after activation, T-cells were frozen at 20 E6 cells/ml in TexMACS medium supplemented with 10% DMSO (D2650, Sigma) in liquid nitrogen. Prior to use, activated T-cells were recovered for 24 hours in TexMACs medium at 0.3 E6 cells/ml and incubated at 37° C. in 5% CO2. Chemokine sources are described in Supplementary information Table 3. Statistical significances between control experimental groups was evaluated using Dunnett's test. IC50 experiments were performed at the EC80 dose of chemokine. EC80 was calculated by fitting a chemokine dose-response curve with 3 parameters (fixing the top to 100%). IC50 was calculated by fitting an inhibitor response curve with 4 parameters.

Molecule	chemotaxis inhibition compared with HD2, meta-analysis (CC and CXC chemokines)	chemotaxis compared with the parental HD2 peptide (CXCL9)
EEDDYWAYAPLTCYFT [HD2_W6]	significant improvement over HD2	significant reduction in chemotaxis
EEDDYTAYWPLTCYFT [A9W]	significant improvement over HD2	significant reduction in chemotaxis
EEDDWTAYAPLTCYFT-NH2 [HD2_W5, EEDDWTAYAPLTCYFT]	significant improvement over HD2	significant reduction in chemotaxis
CC(C)C[C@H](NC(=O)[C@@H]1CCCN1C(=O)[C@H](C)NC(=O)[C@H](Cc1ccc(O)cc1)NC(=O)[C@H](C)NC(=O)[C@@H](NC(=O)[C@H](Cc1ccc(O)cc1)NC(=O)[C@H](CC(=O)O)NC(=O)[C@H](CC(=O)O)NC(=O)[C@H](CCC(=O)O)NC(=O)[C@@H](N)CCC(=O)O)[C@@H](C)O)C(=O)N[C@H](C(=O)N[C@@H](CS)C(=O)N[C@@H](Cc1ccc(O)cc1)C(=O)N[C@@H](Cc1ccccc1)C(=O)N[C@@H](CS)C(N)=O)[C@@H](C)O [HD2_C16, EEDDYTAYAPLTCYFC] (H-EEDDYTAYAPLTCYFC-NH2; N-terminus assumed)	significant improvement over HD2	significant reduction in chemotaxis
